Measured values as given in PubChem BioAssay AID1963849 (Molecular Pharmacology Branch, DTP, NCI, 2024).

Test system: 299254-011-R-J1-PDC complex spheroid viability
Assay: Anticancer human tumor 299254-011-R-J1-PDC patient-derived melanoma cell line growth inhibition [POLQ]
Conditions: for IC50: curve of first compound; for viability, T/C: stronger effect = lower value
In short: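 PDC + HUVEC + MSC complex spheroids; POLQ inhibitors ± partner drugs; top conc. at/near clinical Cmax, else 10 microM (SN-38 1 microM), half-log dilutions; 37 degrees C, 5% CO2.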

[1] = second compound 0.0316 µM, first compound 0.0316 µM
[2] = second compound 0.0316 µM, first compound 0.1 µM
[3] = second compound 0.0316 µM, first compound 0.316 µM
[4] = second compound 0.0316 µM, first compound 1 µM
[5] = second compound 0.0316 µM, first compound 3.16 µM
[6] = second compound 0.0316 µM, first compound 10 µM
[7] = second compound 0.1 µM, first compound 0.0316 µM
[8] = second compound 0.1 µM, first compound 0.1 µM
[9] = second compound 0.1 µM, first compound 0.316 µM
[10] = second compound 0.1 µM, first compound 1 µM
[11] = second compound 0.1 µM, first compound 3.16 µM
[12] = second compound 0.1 µM, first compound 10 µM
[13] = second compound 0.316 µM, first compound 0.0316 µM
[14] = second compound 0.316 µM, first compound 0.1 µM
[15] = second compound 0.316 µM, first compound 0.316 µM
[16] = second compound 0.316 µM, first compound 1 µM
[17] = second compound 0.316 µM, first compound 3.16 µM
[18] = second compound 0.316 µM, first compound 10 µM
[19] = second compound 1 µM, first compound 0.0316 µM
[20] = second compound 1 µM, first compound 0.1 µM
[21] = second compound 1 µM, first compound 0.316 µM
[22] = second compound 1 µM, first compound 1 µM
[23] = second compound 1 µM, first compound 3.16 µM
[24] = second compound 1 µM, first compound 10 µM
[25] = second compound 3.16 µM, first compound 0.0316 µM
[26] = second compound 3.16 µM, first compound 0.1 µM
[27] = second compound 3.16 µM, first compound 0.316 µM
[28] = second compound 3.16 µM, first compound 1 µM
[29] = second compound 3.16 µM, first compound 3.16 µM
[30] = second compound 3.16 µM, first compound 10 µM
[31] = second compound 10 µM, first compound 0.0316 µM
[32] = second compound 10 µM, first compound 0.1 µM
[33] = second compound 10 µM, first compound 0.316 µM
[34] = second compound 10 µM, first compound 1 µM
[35] = second compound 10 µM, first compound 3.16 µM
[36] = second compound 10 µM, first compound 10 µM
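Further: spheroids exposed to drugs for one week before measurement.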
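Wherever viability, T/C is given: percent viability relative to DMSO vehicle control taken as 100%.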

In the case of `COc1cc(C2c3cc4c(cc3C(OC3OC5COC(C)OC5C(O)C3O)C3COC(=O)C23)OCO4)cc(OC)c1O` (centres undefined) + Nc1ccc(C#CCN(C(=O)Cc2ncc(C(F)(F)F)cc2C(F)(F)F)c2ccc(F)cc2)nn1, the IC50 (second compound 0.0316 µM) is reported as greater than 10 µM, the IC50 (second compound 0.1 µM) is reported as greater than 10 µM and the IC50 (second compound 0.316 µM) is reported as greater than 10 µM. The IC50 (second compound 1 µM) was greater than 10 µM, the IC50 (second compound 3.16 µM) was greater than 10 µM and the IC50 (second compound 10 µM) was greater than 10 µM. For the same compound, the viability, T/C [1] was 112%, the viability, T/C [2] was 105% and the viability, T/C [3] was 87.5%. For the same compound, the viability, T/C [4] was 92.2%, the viability, T/C [5] was 78.7% and the viability, T/C [6] was 63.5%. The viability, T/C [7] was 112%, the viability, T/C [8] was 94.4% and the viability, T/C [9] was 112%. For the same compound, the viability, T/C [10] was 84.5%, the viability, T/C [11] was 89.7% and the viability, T/C [12] was 69.7%. It also gave a viability, T/C [13] of 114%, a viability, T/C [14] of 100% and a viability, T/C [15] of 88.5%. For the same compound, the viability, T/C [16] was 106%, the viability, T/C [17] was 83.7% and the viability, T/C [18] was 74.8%. It also gave a viability, T/C [19] of 108%, a viability, T/C [20] of 99.2% and a viability, T/C [21] of 90.3%. It also gave a viability, T/C [22] of 99.6%, a viability, T/C [23] of 71.8% and a viability, T/C [24] of 82.3%. For the same compound, the viability, T/C [25] was 99.7%, the viability, T/C [26] was 102% and the viability, T/C [27] was 88.9%. It also gave a viability, T/C [28] of 80.7%, a viability, T/C [29] of 76.8% and a viability, T/C [30] of 69.3%. For the same compound, the viability, T/C [31] was 98.8%, the viability, T/C [32] was 100% and the viability, T/C [33] was 89.9%. The viability, T/C [34] was 75.5%, the viability, T/C [35] was 89.1% and the viability, T/C [36] was 71.7%.
`O=c1[nH]cc(F)c(=O)[nH]1` + Nc1ccc(C#CCN(C(=O)Cc2ncc(C(F)(F)F)cc2C(F)(F)F)c2ccc(F)cc2)nn1 showed an IC50 (second compound 0.0316 µM) greater than 10 µM, an IC50 (second compound 0.1 µM) greater than 10 µM and an IC50 (second compound 0.316 µM) greater than 10 µM. For the same compound, the IC50 (second compound 1 µM) was greater than 10 µM, the IC50 (second compound 3.16 µM) was greater than 10 µM and the IC50 (second compound 10 µM) was greater than 10 µM. The viability, T/C [1] was 92.7%, the viability, T/C [2] was 111% and the viability, T/C [3] was 101%. For the same compound, the viability, T/C [4] was 113%, the viability, T/C [5] was 89.8% and the viability, T/C [6] was 81.4%. The viability, T/C [7] was 103%, the viability, T/C [8] was 91.2% and the viability, T/C [9] was 119%. For the same compound, the viability, T/C [10] was 87%, the viability, T/C [11] was 82.5% and the viability, T/C [12] was 85.3%. The viability, T/C [13] was 92%, the viability, T/C [14] was 93.3% and the viability, T/C [15] was 101%. For the same compound, the viability, T/C [16] was 101%, the viability, T/C [17] was 95.1% and the viability, T/C [18] was 68%. It also gave a viability, T/C [19] of 116%, a viability, T/C [20] of 99.8% and a viability, T/C [21] of 95.1%. It also gave a viability, T/C [22] of 85.6%, a viability, T/C [23] of 91.5% and a viability, T/C [24] of 78.5%. The viability, T/C [25] was 104%, the viability, T/C [26] was 95% and the viability, T/C [27] was 101%. It also gave a viability, T/C [28] of 96.8%, a viability, T/C [29] of 84.3% and a viability, T/C [30] of 89.5%. For the same compound, the viability, T/C [31] was 91.1%, the viability, T/C [32] was 94.2% and the viability, T/C [33] was 101%. The viability, T/C [34] was 95.4%, the viability, T/C [35] was 88.7% and the viability, T/C [36] was 69.1%.
